Measured values from PubChem BioAssay AID330 (DTP/NCI, 2004).
“And” between values parts separate entries of the source, which are not always exact repeats. Equal entries are not always repeated. Toxic doses and inconclusive results are not listed.

Tested on: P388 leukemia ip, CD2F1 mice, survival T/C
Test: NCI In Vivo Anticancer Drug Screen. Data for tumor model P388 Leukemia (intraperitoneal) in CD2F1 (CDF1) mice
Conditions: endpoint: median survival time, higher = longer survival
Summary of the method: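 Mice carrying the transplanted tumor received test compound or vehicle. Survival was recorded in each group, and the value is the treated-group measurement divided by that of the vehicle-treated control group.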

[1] = dose: 6.25 mg/kg/injection, schedule: Q01DX009 (ip), vehicle: saline
[2] = dose: 12.5 mg/kg/injection, schedule: Q01DX009 (ip), vehicle: saline
[3] = dose: 60.0 mg/kg/injection, schedule: Q01DX005 (ip), vehicle: saline with Tween-80
[4] = dose: 120.0 mg/kg/injection, schedule: Q01DX005 (ip), vehicle: saline with Tween-80

Nc1nc2c(ncn2C2OC(CO)C(O)C2O)c(=O)[nH]1.Nc1nc2c(ncn2C2OC(CO)C(O)C2O)c(=O)[nH]1.[NH2-].[NH2-].[Pt+2] (centres undefined)
T/C [1]: 101 % of control
T/C [2]: 100 % of control and 108 % of control
T/C (dose: 25.0 mg/kg/injection, schedule: Q01DX009 (ip), vehicle: saline): 100 % of control and 107 % of control
T/C (dose: 50.0 mg/kg/injection, schedule: Q01DX009 (ip), vehicle: saline): 100 % of control and 113 % of control and 107 % of control
T/C (dose: 50.0 mg/kg/injection, schedule: Q01DX009 (ip), vehicle: water): 175 % of control
T/C (dose: 50.0 mg/kg/injection, schedule: Q04DX003 (ip), vehicle: saline): 100 % of control
T/C (dose: 100.0 mg/kg/injection, schedule: Q01DX009 (ip), vehicle: saline): 112 % of control and 121 % of control and 116 % of control
T/C (dose: 100.0 mg/kg/injection, schedule: Q01DX009 (ip), vehicle: water): 174 % of control
T/C (dose: 100.0 mg/kg/injection, schedule: Q04DX003 (ip), vehicle: saline): 120 % of control
T/C (dose: 200.0 mg/kg/injection, schedule: Q01DX009 (ip), vehicle: saline): 163 % of control and 177 % of control
T/C (dose: 200.0 mg/kg/injection, schedule: Q04DX003 (ip), vehicle: saline): 110 % of control
T/C (dose: 400.0 mg/kg/injection, schedule: Q01DX009 (ip), vehicle: saline): 224 % of control and 227 % of control

COc1cc(C(CC(C)=O)c2cc3c(cc2OC(C)=O)OCO3)cc(OC)c1OC (centres undefined) (tested in a mixture with another compound)
T/C (dose: 30.0 mg/kg/injection, schedule: Q01DX005 (ip), vehicle: saline with Tween-80): 99 % of control
T/C [3]: 102 % of control and 122 % of control
T/C [4]: 118 % of control
T/C (dose: 240.0 mg/kg/injection, schedule: Q01DX005 (ip), vehicle: saline with Tween-80): 162 % of control and 188 % of control

COc1ccc(-c2cc(=O)c3ccc4cc(OC)c(OC)cc4c3o2)cc1
T/C (dose: 12.5 mg/kg/injection, schedule: Q01DX009 (ip), vehicle: other): 91 % of control
T/C (dose: 100.0 mg/kg/injection, schedule: Q01DX009 (ip), vehicle: other): 88 % of control
T/C (dose: 200.0 mg/kg/injection, schedule: Q01DX009 (ip), vehicle: other): 91 % of control

C[N+](C)(C)CCC(=O)c1ccc(Cl)c(Cl)c1
T/C (dose: 3.13 mg/kg/injection, schedule: Q01DX009 (ip), vehicle: saline): 108 % of control
T/C [1]: 112 % of control
T/C [2]: 108 % of control

NC(=O)N/N=C/c1cccc(O)c1O
T/C (dose: 50.0 mg/kg/injection, schedule: Q01DX009 (ip), vehicle: Klucel (hydroxypropylcellulose) (HPC)): 101 % of control
T/C (dose: 100.0 mg/kg/injection, schedule: Q01DX009 (ip), vehicle: Klucel (hydroxypropylcellulose) (HPC)): 107 % of control
T/C (dose: 200.0 mg/kg/injection, schedule: Q01DX009 (ip), vehicle: Klucel (hydroxypropylcellulose) (HPC)): 116 % of control

CCCCCCCCCCCCCCC(O)c1cccc(OC)c1 (centres undefined)
T/C (dose: 7.5 mg/kg/injection, schedule: Q01DX009 (ip), vehicle: saline with Tween-80): 109 % of control
T/C (dose: 15.0 mg/kg/injection, schedule: Q01DX009 (ip), vehicle: saline with Tween-80): 113 % of control
T/C (dose: 30.0 mg/kg/injection, schedule: Q01DX009 (ip), vehicle: saline with Tween-80): 109 % of control

Oc1ccc2ccccc2c1C=NCCS
T/C [3]: 87 % of control
T/C [4]: 87 % of control

COc1ccc(CSC(=S)Nc2ccc(C(F)(F)F)cc2)cc1
T/C (dose: 50.0 mg/kg/injection, schedule: Q01DX009 (ip), vehicle: suspension in saline): 110 % of control
T/C (dose: 100.0 mg/kg/injection, schedule: Q01DX009 (ip), vehicle: suspension in saline): 101 % of control
T/C (dose: 200.0 mg/kg/injection, schedule: Q01DX009 (ip), vehicle: suspension in saline): 105 % of control

CC(C)(C)P(O)(=S)c1ccccc1 (centres undefined) (tested in a mixture with another compound)
T/C (dose: 100.0 mg/kg/injection, schedule: Q04DX003 (ip), vehicle: Klucel (hydroxypropylcellulose) (HPC)): 102 % of control
T/C (dose: 200.0 mg/kg/injection, schedule: Q04DX003 (ip), vehicle: Klucel (hydroxypropylcellulose) (HPC)): 102 % of control
T/C (dose: 400.0 mg/kg/injection, schedule: Q04DX003 (ip), vehicle: Klucel (hydroxypropylcellulose) (HPC)): 100 % of control

Nc1ncnc2c1cnn2C1OC(CO)C(O)C1O (centres undefined)
T/C (dose: 16.5 mg/kg/injection, schedule: Q01DX009 (ip), vehicle: saline with Tween-80): 152 % of control
T/C (dose: 25.0 mg/kg/injection, schedule: Q01DX009 (ip), vehicle: saline with Tween-80): 154 % of control
T/C (dose: 37.5 mg/kg/injection, schedule: Q01DX009 (ip), vehicle: saline with Tween-80): 124 % of control
